Earlier results on one compound are cited in US20260131010A1, “MENIN PROTEOLYSIS TARGETING CHIMERAS (PROTACS)” (Board of Regents, The University of Texas System, priority 2022, published 2026).

The subject of this data set is MLL leukemias. The settings on record: Borkin, et al. Cancer Cell 2015, 27(4) 589-602.

As for `Cc1c(CN2CCC(Nc3ncnc4sc(CC(F)(F)F)cc34)CC2)ccc2c1cc(C#N)n2Cc1cn[nH]c1` [MI-503], the “efficacy in mouse models of MLL leukemias” value is “effective”.
